Tests used:
StHdh^Q111/Q111 cells = assay: RUSH system: GPI-SBP-mCherry trafficking from endoplasmic reticulum to Golgi and plasma membrane; format: cell-based, mouse; settings: StHdh^Q111/Q111 cells treated 1 hour with 10 μM
Experimental: The RUSH plasmid (Boncompain et al., 2012) is a bicistronic plasmid (SEQ ID NO: 2) allowing the expression of two parts of the system: the reticulum-specific anchor (KDEL-streptavidin), and the reporter part (GPI-SBP-mCh). The addition of biotin in the extracellular medium (40 μM) induces the unhooking of the reporter part of the anchor, thus allowing to follow the intracellular trafficking in a synchronized way within a cell population from the endoplasmic reticulum.
For striatal StHdh cells, acute treatment was performed at 10 μM for 1 hour before and during the acquisition time. For neurons within the microchambers, treatments were started at DIV2 until DIV12 every day at 1 μM in each compartment of the microfluidic device.
The inventors used the Retention Using Selective Hooks (RUSH) system to study intracellular dynamics from the ER to the plasma membrane in Huntington's disease condition (FIG. 1A). RUSH allows tracking the synchronous release of a reporter molecule from specific intracellular compartments. In the present experiment, the inventors followed the release of glycosylphosphatidylinositol (GPI)-anchored fluorescence protein mCherry, and fused to streptavidin-binding peptide (SBP) that was retained into the ER compartment by the interaction with a “hook” protein composed of the KDEL motif fused to streptavidin. In the absence of biotin, the GPI-SBP-mCherry localizes at the ER (FIG. 1A). Addition of biotin to the cells expressing GPI-SBP-mCherry and KDEL-streptavidin causes a synchronous release of the GPI-SBP-mCherry reporter from the hook which then migrates to the Golgi apparatus and later to the plasma membrane.
To study these dynamics in the context of Huntington's disease, the inventors transfected the GPI-SBP-mCherry-KDEL-streptavidin construct as shown in SEQ ID NO:2 into immortalized striatal cells from Hdh^Q111/Q111 and Hdh^Q7/Q7 mice, referred to as StHdh^Q111/Q111 and StHdh^Q7/Q7 cells respectively. They then monitored GPI-SBP-mCherry trafficking by real-time imaging for 90 minutes. To assess intracellular trafficking dynamics, they quantified the kinetics of appearance and disappearance of mCherry fluorescence in the Golgi apparatus over time (FIGS. 1B and C). Shortly after biotin addition, GPI leaves the ER and moves to the Golgi apparatus. The inventors quantified fluorescence at the Golgi and observed that in StHdh^Q7/Q7 cells, the peak fluorescence was at 16.6 minutes, whereas it was delayed to 23.6 minutes in StHdh^Q111/Q111 cells (FIG. 1B). Their observations indicate a reduced trafficking of GPI from the ER to the Golgi apparatus as well as prolonged retention of GPI in the Golgi as evidenced by a longer period of GPI fluorescence in the Golgi apparatus.

[1] = tested on: cortical neurons derived from human induced pluripotent stem cells (iPSCs) from Huntington's disease patients; assay: BDNF-mCherry axonal trafficking in hiPSC-derived cortical neurons in microfluidic device; format: cell-based; settings: 1 μM daily for 7 days vs DMSO
Experimental: Referring to FIG. 7A, the inventors again reproduced the corticostriatal network in vitro on a microfluidic device consisting of two neuronal chambers that are connected via microchannels. Experiments are performed over a period ranging from 0 to 40 days in vitro (DIV), the first 20 days for neuronal cell generation and differentiation of hiPSCs, followed by the introduction of the cells into the microfluidic device. 3 hours after introduction, cells were infected from the pre-synaptic compartment with a lentivirus encoding BDNF-mCHerry.
The human iPSC line ND42222 (RRID:CVCL_Y844 passage 42) “109Q” was obtained from Coriell Cell Repositories. This line is heterozygous for HTT p.Gln18[109] and therefore has 109 CAG repeats in one of the two HTT alleles. Amplification of human iPSCs, generation of neuronal cells and terminal differentiation were performed according to the work published in Gribaudo S. et al. (Stem Cell Reports 12, 230-244, 2019). 109Q cells were maintained on Vitronectin-coated plates (Life Technology) in mTeSRplus medium ([…] Technologies). Cultures were fed every other day and passaged by manual dissociation using 0.02% EDTA pH 7.2 (Merck Sigma-Aldrich) every 4-5 days. For neuronal differentiation, hiPSC colonies were treated (DIV0) as previously described (Nicoleau et al., 2013) in N2B27 medium consisting of 50% DMEMF-12 Glutamax, 50% neurobasal medium, 2% B27 supplement 50× without vitamin A, 1% N2 supplement, 0.1% penicillin streptomycin, and 50 μM β-mercaptoethanol (Thermofisher). Neuronal differentiation was initiated by passage of hiPSCs in N2B27 medium supplemented with SB431542 (20 μM, Tocris), LDN-193189 (100 nM, Sigma Aldrich) and XAV_939 (1 μM, Tocris) and 10 μM ROCK inhibitor (Y27632, Calbiochem) on low-adhesion culture plates (Greiner) for 6 hours. The medium was changed every day from DIV0 to DIV20. At DIV1, hiPSC aggregates were transferred to laminin poly-ornitine-coated dishes without Y27632. From DIV5 to DIV9, SB431542 was removed and FGF2 (10 ng/ml) and cyclopamine 1 μM (Merck) were added. […]

O=C(CN1CCN(C(=O)c2ccco2)CC1)Nc1cc(C(F)(F)F)ccc1Cl [ML-348]
time after biotin addition for the appearance of the fluorescence peak in the Golgi (StHdh^Q111/Q111 cells; without treatment 23.2-23.3 min, StHdh^Q7/Q7 16.6 min): 18.9 min | time for fluorescence to leave the Golgi apparatus (retention time in the Golgi) (StHdh^Q111/Q111 cells; without treatment 24-25.4 min, wild-type cells 15.1 min): 15.1 min | anterograde and retrograde transport velocities of BDNF-mCherry vesicles [1]: not statistically significant | linear net flow [1]: significantly increased | number of vesicles moving in either direction (anterograde, retrograde) [1]: significantly increased

Source: patent US12551479B2, “Acyl-protein thioesterase inhibitor for the treatment and/or prevention of Huntington's disease” (UNIVERSITÉ GRENOBLE ALPES, priority 2019, dated 2026)
